Results from ChEMBL document CHEMBL1201862, “PubChem BioAssay data set” (2004).
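Interpolation was linear, between the two tested concentrations surrounding the appropriate level; five concentrations were tested over 48 hours in 96-well plates. At the GI50, growth is halved.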 The source made the active and inactive calls. No stated cut-off is given here; in the data, active = GI50 up to about 1.1 µM and inactive = higher.

What was measured:
Experiment in all cases: NCI tumour cell line growth inhibition, 48 h
[1] = tested on: A498
[2] = tested on: A549
[3] = tested on: ACHN
[4] = tested on: COLO 205
[5] = tested on: DMS-273
[6] = tested on: HCT-15
[7] = tested on: HOP-62
[8] = tested on: IGROV-1
[9] = tested on: M14
[10] = tested on: OVCAR-8
[11] = tested on: RXF 393
[12] = tested on: SN12C
[13] = tested on: HT-29
[14] = tested on: KM12
[15] = tested on: NCI-H522
[16] = tested on: SK-MEL-2

Row | Compound | GI50 [1] | GI50 [2] | GI50 [3] | GI50 [4] | GI50 [5] | GI50 [6] | GI50 [7] | GI50 [8] | GI50 [9] | GI50 [10] | GI50 [11] | GI50 [12] | GI50 [13] | GI50 [14] | GI50 [15] | GI50 [16]
1 | C/C(=N\N=C(\N)S)c1ccc(Oc2ccccc2)cc1 | 13.7 µM (inactive) | 18.7 µM (inactive) | 10.3 µM (inactive) | 8.36 µM (inactive) | 5.96 µM (inactive) | 3.99 µM | 20.5 µM (inactive) | 2.59 µM (inactive) | 9.98 µM (inactive) | 11.7 µM (inactive) | 10.3 µM (inactive) | 11.4 µM (inactive) | – | – | – | –
2 | O=C(C#Cc1ccccc1)Nc1ccccc1CC(c1c[nH]c2ccccc12)c1c[nH]c2ccccc12 | – | 23.2 µM (inactive) | – | 18.2 µM (inactive) | 11.3 µM (inactive) | 7.5 µM | 39.6 µM (inactive) | 16.3 µM (inactive) | 15.6 µM (inactive) | 8.32 µM (inactive) | 3.02 µM (inactive) | 8.83 µM (inactive) | 10.3 µM (inactive) | 14.7 µM (inactive) | 11.6 µM (inactive) | 18.3 µM (inactive)
3 | CC(N)C(=O)c1ccc(O)cc1 (stereo not drawn) | > 100 µM (inactive) | > 100 µM (inactive) | > 100 µM (inactive) | > 100 µM (inactive) | > 100 µM (inactive) | > 100 µM | > 100 µM (inactive) | > 100 µM (inactive) | > 100 µM (inactive) | > 100 µM (inactive) | > 100 µM (inactive) | > 100 µM (inactive) | > 100 µM (inactive) | > 100 µM (inactive) | > 100 µM (inactive) | > 100 µM (inactive)
4 | COc1ccc(OC)c(NC(=O)C2=C(C)NC(C)=C(C(=O)Nc3cc(OC)ccc3OC)C2c2ccco2)c1 | > 100 µM (inactive) | > 100 µM (inactive) | > 100 µM (inactive) | > 100 µM (inactive) | 95.9 µM (inactive) | > 100 µM | > 100 µM (inactive) | > 100 µM (inactive) | > 100 µM (inactive) | > 100 µM (inactive) | – | > 100 µM (inactive) | > 100 µM (inactive) | > 100 µM (inactive) | > 100 µM (inactive) | > 100 µM (inactive)
5 | COc1ccc(OC)c(/C=C2\CCc3ccccc3C2=O)c1 | 2.61 µM (inactive) | 2.25 µM (inactive) | 7.26 µM (inactive) | 3.18 µM (inactive) | 1.12 µM (active) | 3.91 µM | 2.47 µM (inactive) | 11.4 µM (inactive) | 3.59 µM (inactive) | 4.16 µM (inactive) | 1.76 µM (inactive) | 5.48 µM (inactive) | 0.735 µM (active) | 3.05 µM (inactive) | 1.77 µM (inactive) | 2.93 µM (inactive)
6 | C/C=C(\C)C(=O)N1c2ccccc2CC1c1c(C)[nH]c2ccccc12 (stereo not drawn) | > 100 µM (inactive) | > 100 µM (inactive) | 55.8 µM (inactive) | 23.3 µM (inactive) | 39.1 µM (inactive) | 37 µM | > 100 µM (inactive) | 39.6 µM (inactive) | 39.3 µM (inactive) | 83.8 µM (inactive) | > 100 µM (inactive) | > 100 µM (inactive) | 38.4 µM (inactive) | 26.7 µM (inactive) | 42.3 µM (inactive) | 19.3 µM (inactive)
7 | C[C@]12CC[C@H](O)CC1=CC[C@@H]1C2CC[C@]2(C)C(=O)N(N)C(=O)CC12 (stereo partly drawn) | > 100 µM (inactive) | > 100 µM (inactive) | > 100 µM (inactive) | > 100 µM (inactive) | > 100 µM (inactive) | > 100 µM | > 100 µM (inactive) | > 100 µM (inactive) | > 100 µM (inactive) | > 100 µM (inactive) | > 100 µM (inactive) | > 100 µM (inactive) | > 100 µM (inactive) | > 100 µM (inactive) | > 100 µM (inactive) | > 100 µM (inactive)
8 | O=C1CC2(C[C@@H]3CCCCCCCCC[C@@H](C3)C2)N1 (stereo partly drawn) | 16.7 µM (inactive) | 21.8 µM (inactive) | 15.5 µM (inactive) | 16.7 µM (inactive) | 12.3 µM (inactive) | 17.7 µM | 17.1 µM (inactive) | 12.9 µM (inactive) | 14.8 µM (inactive) | 17.5 µM (inactive) | 16.2 µM (inactive) | 16.8 µM (inactive) | 12.8 µM (inactive) | 17.8 µM (inactive) | 16.3 µM (inactive) | 19.8 µM (inactive)
9 | N/C(=C\c1ccc(OCc2ccccc2)c(OCc2ccccc2)c1[N+](=O)[O-])C(=O)O | > 100 µM (inactive) | > 100 µM (inactive) | > 100 µM (inactive) | > 100 µM (inactive) | > 100 µM (inactive) | – | > 100 µM (inactive) | > 100 µM (inactive) | > 100 µM (inactive) | > 100 µM (inactive) | > 100 µM (inactive) | > 100 µM (inactive) | > 100 µM (inactive) | > 100 µM (inactive) | > 100 µM (inactive) | > 100 µM (inactive)
10 | COc1ccc(/C(Cl)=C/c2cc(OC)ccc2OC)cc1 | 92.9 µM (inactive) | 75.2 µM (inactive) | 65.8 µM (inactive) | > 100 µM (inactive) | 35.2 µM (inactive) | 53.2 µM | > 100 µM (inactive) | > 100 µM (inactive) | 63.8 µM (inactive) | 61.9 µM (inactive) | 20.5 µM (inactive) | 56.4 µM (inactive) | 62.2 µM (inactive) | – | 46.9 µM (inactive) | –
11 | COc1cc2c3c(c1OCc1ccccc1)NCCC3NCC2 (stereo not drawn) | > 100 µM (inactive) | > 100 µM (inactive) | – | > 100 µM (inactive) | > 100 µM (inactive) | > 100 µM | > 100 µM (inactive) | > 100 µM (inactive) | > 100 µM (inactive) | > 100 µM (inactive) | 98.2 µM (inactive) | > 100 µM (inactive) | > 100 µM (inactive) | > 100 µM (inactive) | > 100 µM (inactive) | –
12 | CCN(CC)c1ccc(C2N3CCCCC3[C@@H]3c4[nH]c5ccccc5c4CCN23)cc1 (stereo partly drawn) | 14.5 µM (inactive) | 49.1 µM (inactive) | 27 µM (inactive) | 27.4 µM (inactive) | 32.9 µM (inactive) | 34.8 µM | > 100 µM (inactive) | 42.8 µM (inactive) | 24.8 µM (inactive) | 35.3 µM (inactive) | 15.8 µM (inactive) | 19.7 µM (inactive) | 16.1 µM (inactive) | – | – | > 10 µM (inactive)
13 | CCCCN(CCCC)CC(C(=O)Nc1ccc([N+](=O)[O-])cc1[N+](=O)[O-])/C(C)=N\NC(=S)NN (stereo not drawn) | > 100 µM (inactive) | > 100 µM (inactive) | 56.6 µM (inactive) | > 100 µM (inactive) | > 100 µM (inactive) | – | > 100 µM (inactive) | > 100 µM (inactive) | > 100 µM (inactive) | > 100 µM (inactive) | 96.2 µM (inactive) | – | > 100 µM (inactive) | > 100 µM (inactive) | 25.5 µM (inactive) | > 100 µM (inactive)
14 | CN(C)c1nc(N(C)C)nc(N(C)CN(C)c2nc(N(C)C)nc(N(C)C)n2)n1 | > 100 µM (inactive) | > 100 µM (inactive) | > 100 µM (inactive) | > 100 µM (inactive) | > 100 µM (inactive) | > 100 µM | > 100 µM (inactive) | > 100 µM (inactive) | > 100 µM (inactive) | > 100 µM (inactive) | > 100 µM (inactive) | > 100 µM (inactive) | > 100 µM (inactive) | > 100 µM (inactive) | 76.9 µM (inactive) | > 100 µM (inactive)
15 | O[C@]12CCCC[C@H]1CCC2 | > 100 µM (inactive) | > 100 µM (inactive) | > 100 µM (inactive) | > 100 µM (inactive) | > 100 µM (inactive) | > 100 µM | > 100 µM (inactive) | > 100 µM (inactive) | > 100 µM (inactive) | > 100 µM (inactive) | > 100 µM (inactive) | > 100 µM (inactive) | > 100 µM (inactive) | > 100 µM (inactive) | > 100 µM (inactive) | > 100 µM (inactive)
16 | Cc1ccc(O)c(/N=N/c2ccc(S(=O)(=O)O)cc2)n1 | > 100 µM (inactive) | > 100 µM (inactive) | > 100 µM (inactive) | > 100 µM (inactive) | > 100 µM (inactive) | > 100 µM | – | > 100 µM (inactive) | > 100 µM (inactive) | > 100 µM (inactive) | > 100 µM (inactive) | > 100 µM (inactive) | – | – | > 100 µM (inactive) | –
17 | COC(=O)CC(C(C(=O)OC)C(=O)OC)N1C(=O)OC(c2ccccc2)C1c1ccccc1 (stereo not drawn) | > 100 µM (inactive) | > 100 µM (inactive) | > 100 µM (inactive) | 86.9 µM (inactive) | > 100 µM (inactive) | 53.6 µM | > 100 µM (inactive) | > 100 µM (inactive) | > 100 µM (inactive) | > 100 µM (inactive) | 74.5 µM (inactive) | > 100 µM (inactive) | > 100 µM (inactive) | > 100 µM (inactive) | 69.5 µM (inactive) | > 100 µM (inactive)
18 | Cc1c2ccncc2c(C)c2c1[nH]c1ccc(Oc3ccccc3)cc12 | 5.62 µM (inactive) | 2.25 µM (inactive) | 3.11 µM (inactive) | 2.52 µM (inactive) | 1.76 µM (inactive) | 1.44 µM | 1.96 µM (inactive) | 4.13 µM (inactive) | 1.82 µM (inactive) | 2.03 µM (inactive) | 1.86 µM (inactive) | 1.81 µM (inactive) | 1.79 µM (inactive) | 2.6 µM (inactive) | 2.37 µM (inactive) | 1.66 µM (inactive)
19 | Cc1c(O)c(=O)ccn1CCN | > 100 µM (inactive) | > 100 µM (inactive) | > 100 µM (inactive) | > 100 µM (inactive) | > 100 µM (inactive) | > 100 µM | – | > 100 µM (inactive) | > 100 µM (inactive) | > 100 µM (inactive) | > 100 µM (inactive) | > 100 µM (inactive) | > 100 µM (inactive) | > 100 µM (inactive) | > 100 µM (inactive) | > 100 µM (inactive)
